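Results reflect a 48-hour exposure of cells in 96-well plates to compound at five concentrations. Here, GI50 denotes the concentration required for 50% inhibition of growth.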 Calls of active or inactive are those of the source. No stated cut-off is given here; in the data, active = GI50 up to about 1.1 µM and inactive = higher.
Legend:
Test in all cases: NCI-60 cell line screen, 48 h
K562 = tested on: K562
HL-60 = tested on: HL-60
TK-10 = tested on: TK-10
HT-29 = tested on: HT-29
NCI-H460 = tested on: NCI-H460
KM-20L2 = tested on: KM-20L2
SF-268 = tested on: SF-268
SW-620 = tested on: SW-620
786-0 = tested on: 786-0
EKVX = tested on: EKVX
HOP-92 = tested on: HOP-92
A549 = tested on: A549
ACHN = tested on: ACHN
HCT-15 = tested on: HCT-15
RXF 393 = tested on: RXF 393
SK-OV-3 = tested on: SK-OV-3
SR = tested on: SR

Row | Structure (SMILES) | GI50 (K562) | GI50 (HL-60) | GI50 (TK-10) | GI50 (HT-29) | GI50 (NCI-H460) | GI50 (KM-20L2) | GI50 (SF-268) | GI50 (SW-620) | GI50 (786-0) | GI50 (EKVX) | GI50 (HOP-92) | GI50 (A549) | GI50 (ACHN) | GI50 (HCT-15) [µM] | GI50 (RXF 393) | GI50 (SK-OV-3) | GI50 (SR)
1 | C=C(C)C1CC=C(C(=O)O)CC1 (stereo unspecified) | 1200 µM (inactive) | 906 µM (inactive) | 1580 µM (inactive) | 1450 µM (inactive) | 1360 µM (inactive) | 1410 µM (inactive) | 1190 µM (inactive) | 1740 µM (inactive) | 1410 µM (inactive) | 2360 µM (inactive) | 1440 µM (inactive) | 1210 µM (inactive) | 1020 µM (inactive) | 871 | 942 µM (inactive) | 2070 µM (inactive) | 1160 µM (inactive)
2 | N#CC(c1ccc(Cl)cc1)c1cccc(Cl)n1 (stereo unspecified) | 58.9 µM (inactive) | 47.1 µM (inactive) | 33.2 µM (inactive) | 83.6 µM (inactive) | > 100 µM (inactive) | 80.4 µM (inactive) | 38.4 µM (inactive) | > 100 µM (inactive) | 82.2 µM (inactive) | 39 µM (inactive) | 30.2 µM (inactive) | 31 µM (inactive) | 32.7 µM (inactive) | – | – | 42.1 µM (inactive) | 45.1 µM (inactive)
3 | CC1=CC(=O)NP(=O)(Oc2ccc(C)cc2)N1 (stereo unspecified) | > 100 µM (inactive) | > 100 µM (inactive) | > 100 µM (inactive) | > 100 µM (inactive) | > 100 µM (inactive) | > 100 µM (inactive) | > 100 µM (inactive) | > 100 µM (inactive) | > 100 µM (inactive) | > 100 µM (inactive) | > 100 µM (inactive) | – | > 100 µM (inactive) | > 100 | – | > 100 µM (inactive) | > 100 µM (inactive)
4 | COc1ccc([C@@H]2OC(=O)C3C2C(=O)O[C@H]3c2ccc(OC)cc2)cc1 (stereo partly specified) | > 100 µM (inactive) | > 100 µM (inactive) | – | > 100 µM (inactive) | > 100 µM (inactive) | > 100 µM (inactive) | – | > 100 µM (inactive) | > 100 µM (inactive) | > 100 µM (inactive) | 0.209 µM (active) | > 100 µM (inactive) | > 100 µM (inactive) | > 100 | 76.4 µM (inactive) | > 100 µM (inactive) | > 100 µM (inactive)
5 | O=C1C2=C(CCCCC2)C2CCCCC12O (stereo unspecified) | > 100 µM (inactive) | > 100 µM (inactive) | > 100 µM (inactive) | > 100 µM (inactive) | > 100 µM (inactive) | > 100 µM (inactive) | > 100 µM (inactive) | > 100 µM (inactive) | > 100 µM (inactive) | > 100 µM (inactive) | > 100 µM (inactive) | > 100 µM (inactive) | > 100 µM (inactive) | – | > 100 µM (inactive) | > 100 µM (inactive) | > 100 µM (inactive)
6 | CN1C/C(=C\c2ccccc2)C2=NN(C(N)=S)[C@H](c3ccccc3)[C@@H]2C1 | 36 µM (inactive) | 21.7 µM (inactive) | > 100 µM (inactive) | 32.9 µM (inactive) | 50.5 µM (inactive) | 55.6 µM (inactive) | > 100 µM (inactive) | > 100 µM (inactive) | 64 µM (inactive) | > 100 µM (inactive) | 75.3 µM (inactive) | 52 µM (inactive) | 76.7 µM (inactive) | > 100 | 34.4 µM (inactive) | > 100 µM (inactive) | > 100 µM (inactive)
7 | O=C(O)CNc1c2ccccc2nc2ccccc12 | > 100 µM (inactive) | 48.2 µM (inactive) | > 100 µM (inactive) | > 100 µM (inactive) | > 100 µM (inactive) | > 100 µM (inactive) | > 100 µM (inactive) | > 100 µM (inactive) | > 100 µM (inactive) | > 100 µM (inactive) | > 100 µM (inactive) | > 100 µM (inactive) | > 100 µM (inactive) | > 100 | > 100 µM (inactive) | > 100 µM (inactive) | > 100 µM (inactive)
8 | c1ccc(COCC2OC3c4ccccc4COC3C2OCc2ccccc2)cc1 (stereo unspecified) | 57.5 µM (inactive) | – | > 100 µM (inactive) | 99.1 µM (inactive) | 71.6 µM (inactive) | > 100 µM (inactive) | – | > 100 µM (inactive) | > 100 µM (inactive) | > 100 µM (inactive) | 19.4 µM (inactive) | > 100 µM (inactive) | > 100 µM (inactive) | 69.5 | 32 µM (inactive) | > 100 µM (inactive) | 57.8 µM (inactive)
9 | Cc1cc(=O)n(-c2ccccc2)c(=O)o1 | > 100 µM (inactive) | > 100 µM (inactive) | > 100 µM (inactive) | > 100 µM (inactive) | > 100 µM (inactive) | > 100 µM (inactive) | > 100 µM (inactive) | > 100 µM (inactive) | > 100 µM (inactive) | > 100 µM (inactive) | > 100 µM (inactive) | > 100 µM (inactive) | > 100 µM (inactive) | > 100 | > 100 µM (inactive) | > 100 µM (inactive) | > 100 µM (inactive)
10 | CC1OC(n2cc(C(F)(F)F)c(=O)[nH]c2=O)C=CC1=O (stereo unspecified) | 27.5 µM (inactive) | 18.5 µM (inactive) | 20.9 µM (inactive) | 24.5 µM (inactive) | 23.5 µM (inactive) | 22.3 µM (inactive) | 39.2 µM (inactive) | 17.6 µM (inactive) | 18.4 µM (inactive) | – | 23.9 µM (inactive) | 47.3 µM (inactive) | 17.5 µM (inactive) | 20.7 | – | 19.6 µM (inactive) | 12.7 µM (inactive)
11 | COC(=O)C1=C(C(=O)OC)C2C(C)=CC(C)=CN2C(C#N)=C(SC)S1 (stereo unspecified) | 20.7 µM (inactive) | 19.5 µM (inactive) | 35.2 µM (inactive) | 21.1 µM (inactive) | > 100 µM (inactive) | 32.7 µM (inactive) | 20.6 µM (inactive) | 19.9 µM (inactive) | 30.8 µM (inactive) | 25.9 µM (inactive) | – | 37.2 µM (inactive) | 28.4 µM (inactive) | 19.7 | 16.1 µM (inactive) | 46.3 µM (inactive) | 19 µM (inactive)
12 | N#CC1(C=O)c2ccccc2C=CN1C(=O)c1ccccc1 (stereo unspecified) | 29.6 µM (inactive) | 17.7 µM (inactive) | 63.5 µM (inactive) | 38.2 µM (inactive) | 73.6 µM (inactive) | 43.6 µM (inactive) | 70.3 µM (inactive) | 4.3 µM (inactive) | 31.7 µM (inactive) | 29.7 µM (inactive) | 23.4 µM (inactive) | 76.2 µM (inactive) | 27.4 µM (inactive) | 40.7 | 20.5 µM (inactive) | – | 18.5 µM (inactive)
13 | COC(=O)C(=O)C(C(=O)C(=O)Nc1ccc(C)cc1C)c1nc2ccccc2nc1O (stereo unspecified) | 42.5 µM (inactive) | 41.8 µM (inactive) | 22.1 µM (inactive) | > 100 µM (inactive) | 85.5 µM (inactive) | > 100 µM (inactive) | 99.1 µM (inactive) | > 100 µM (inactive) | 77.4 µM (inactive) | 17.9 µM (inactive) | – | 31.7 µM (inactive) | 50 µM (inactive) | 31.6 | 17.8 µM (inactive) | 40.1 µM (inactive) | 35.8 µM (inactive)
14 | CC(=O)OCC1OC(N2C(=O)C(=O)c3ccccc32)C(OC(C)=O)C(OC(C)=O)C1OC(C)=O (stereo unspecified) | > 100 µM (inactive) | – | > 100 µM (inactive) | > 100 µM (inactive) | > 100 µM (inactive) | > 100 µM (inactive) | > 100 µM (inactive) | > 100 µM (inactive) | > 100 µM (inactive) | > 100 µM (inactive) | > 100 µM (inactive) | > 100 µM (inactive) | > 100 µM (inactive) | > 100 | > 100 µM (inactive) | > 100 µM (inactive) | > 100 µM (inactive)
15 | CC[C@H]1[C@@H](C)C=C[C@@H](C)N1S(=O)(=O)c1ccc(C)cc1 | 89.9 µM (inactive) | 18.5 µM (inactive) | – | > 100 µM (inactive) | > 10 µM (inactive) | > 100 µM (inactive) | 75 µM (inactive) | > 100 µM (inactive) | > 100 µM (inactive) | > 100 µM (inactive) | – | > 100 µM (inactive) | 67 µM (inactive) | 61.2 | 48.6 µM (inactive) | > 100 µM (inactive) | 66.5 µM (inactive)
16 | Cc1c(Cl)ccc2[s+]snc12 | 22.6 µM (inactive) | 17.6 µM (inactive) | 62.7 µM (inactive) | 34.4 µM (inactive) | 55 µM (inactive) | > 100 µM (inactive) | 23.8 µM (inactive) | 27.7 µM (inactive) | 19.1 µM (inactive) | > 100 µM (inactive) | – | 38.6 µM (inactive) | 42.2 µM (inactive) | 46.2 | 19.8 µM (inactive) | > 100 µM (inactive) | 25.2 µM (inactive)
17 | O=C1C2C3C=C4c5ccccc5N(c5ccccc5)C4(C2C(=O)N1c1ccc(Cl)cc1)[C@H]1C(=O)N(c2ccc(Cl)cc2)C(=O)[C@@H]31 (stereo partly specified) | > 100 µM (inactive) | > 100 µM (inactive) | > 100 µM (inactive) | > 100 µM (inactive) | > 100 µM (inactive) | > 100 µM (inactive) | – | > 100 µM (inactive) | > 100 µM (inactive) | > 100 µM (inactive) | > 100 µM (inactive) | > 100 µM (inactive) | – | > 100 | > 100 µM (inactive) | > 100 µM (inactive) | > 100 µM (inactive)
18 | Cc1ccc(-c2cc(O)c3cc4c(cc3n2)OCO4)cc1 | 0.705 µM (active) | 0.43 µM (active) | 7.66 µM (inactive) | 2.18 µM (inactive) | 0.82 µM (active) | 1.67 µM (inactive) | 2.96 µM (inactive) | 0.482 µM (active) | 1.78 µM (inactive) | 4.05 µM (inactive) | 1.87 µM (inactive) | 2.02 µM (inactive) | 7.67 µM (inactive) | 0.501 | 1.44 µM (inactive) | 1.45 µM (inactive) | 0.973 µM (active)

From ChEMBL document CHEMBL1201862, “PubChem BioAssay data set” (2004)
